The values that follow come from US20080306002A1, “Combination Therapy for Preventing Angiogenesis” (The General Hospital Corporation, priority 2005, published 2008).

One test has as its system NF-κB. Description: NF-κB reporter assay in DLD-1^HIF-kd cells in hypoxia. It counts as cell-based. How it is done: Cell lines. DLD-1 and Caco2 cells (ATCC) were stably transfected with HIF-1α siRNA constructs (pSuper.retro, OligoEngine), pSR.HIF-1α1470 or pSR.HIF-1α2192^10. […] Transient transfections were performed using Lipofectamine 2000 (Invitrogen).
(§1) Transfections and Reporter Assays. 0.1-0.2 μg reporter constructs were co-transfected with 2 ng of pRL-CMV (Promega) and luciferase activity was measured with the Dual Luciferase Reporter Assay System (Promega). pRL-null, a promoter-less Renilla construct, was used when cells were co-transfected with a K-ras expression vector^29. The relative luciferase activity was calculated as Firefly/Renilla luciferase activity. The level of ‘hypoxic induction’ was the ratio between the relative luciferase activity in hypoxia to that in normoxia.
For orientation: In a reporter assay the amount or activity of a reporter protein is the signal.

Another test concerns VEGF. The following applies: plus chemotherapy vs chemotherapy alone; cited from earlier work.
Sequence of VEGF (P15692 207-311 limits assumed): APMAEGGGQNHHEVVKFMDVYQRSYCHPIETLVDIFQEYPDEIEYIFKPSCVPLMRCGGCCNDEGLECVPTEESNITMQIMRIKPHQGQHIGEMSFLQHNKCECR
The next test has as its system IL-8. Put plainly: IL-8 mRNA (qRT-PCR) in parental DLD-1 cells given t-butyl hydroperoxide. It counts as cell-based. How it is done:
Real-time PCR assay. RNA was extracted using the RNeasy kit (Qiagen) and quantitative reverse-transcription PCR was performed using the SuperScript III platinum Two-Step qRT-PCR Kit (Invitrogen). Primer sequences for VEGF, IL-8, and 18S RNA are available upon request. A fluorogenic SYBR Green and MJ research detection system were used for real time quantification.
Hydrogen peroxide studies. Measurement of H2O2 was performed using the Amplex Red Hydrogen peroxide Assay Kit and the CM-H2DCFDA reagent (both Molecular Probe). Cells were exposed to hypoxia for 10 h, and then culture medium was switched to Krebs-Ringer phosphate buffer^30 containing 100 μM Amplex Red reagent and 0.2 U/mL HRP. After additional incubation in hypoxia for 1 h, fluorescence was measured in 96-well plates by Spectra MAX GEMINI XS microplate fluorometer (Molecure Devices). Cells were also incubated with 10 μM CM-H2DCFDA for 30 minutes in RPMI without phenol red. Fluorescence was measured in 96 well plates and values were normalized to cell number. 20 or 40 μM t-butyl hydroperoxide (t-BH, Sigma) was added to the culture media of DLD-1 cells every 30 minutes for 6 hours, and IL-8 mRNA levels were measured by qRT-PCR.

The test system of test [1] is IL8 promoter. Description: IL-8 promoter reporter assay in DLD-1^HIF-kd cells in hypoxia. It counts as cell-based. How it is done:
(§2) Cell lines. DLD-1 and Caco2 cells (ATCC) were stably transfected with HIF-1α siRNA constructs (pSuper.retro, OligoEngine), pSR.HIF-1α1470 or pSR.HIF-1α2192^10. […] In a pilot xenograft study, growth, microvascular density, VEGF and IL-8 levels were similar between a pSR.HIF-1α1470 clone and pSR.HIF-1α2192 clone. […] Transient transfections were performed using Lipofectamine 2000 (Invitrogen).
as §1

Test [2] relates to IL8 promoter. Put plainly: IL-8 promoter reporter assay in Caco2 cells with KRAS^V12 and hypoxia. It counts as cell-based. How it is done: as §2, §1

Consider `C=C(C)[C@H]1Cc2c(ccc3c2O[C@@H]2COc4cc(OC)c(OC)cc4[C@@H]2C3=O)O1` [rotenone], for which, in the test with NF-κB, the “induction of NF-κB promoter activity by hypoxia” value is recorded as “strongly blocked”.
On to “Avastin: A monoclonal antibody to VEGF; recombinant humanized antibody (Genentech)”, for which, in the test with VEGF, the survival result is reported as “greater” and the time to progression entry is given as “highly significant longer”.
`CC(C)(C)OO` [t-butyl hydroperoxide]: the “production of IL-8” value in the test with IL-8 (exogenous administration) is “stimulated”.
Take `c1ccc2c(c1)[I+]c1ccccc1-2` [diphenylene iodonium]: the “induction of NF-κB promoter activity by hypoxia” value in the test with NF-κB is recorded as “strongly blocked”.
On to `Cc1ccc(S(=O)(=O)/C=C/C#N)cc1` [BAY 11-7082], for which the “hypoxic induction of the IL8 promoter” value with IL8 promoter [1] is “significantly down-regulated”. Also, in the test on IL8 promoter [2], the “induction of the IL8 promoter by hypoxia and KRAS^V12” value is “blocked”. Also, the “induction of IL-8 by t-butyl hydroperoxide” value in the test on IL-8 (5 μM BAY 11-7082) is reported as “inhibited”.
